# Experimental data taken from publication PMC10246557, “Kinetic and inhibition studies on human Jumonji-C (JmjC) domain-containing protein 5” (RSC Chemical Biology, 2023).
# Where “and” joins values, the source holds several entries; their conditions need not be identical. Equal values may be shown once. Read-outs that look alike come from different tables or passages of the source.
# Assays:
# human JMJD5 [1] = target: T1, human JMJD5 (Homo sapiens, UniProt Q8N371); assay: SPE-MS JMJD5 inhibition assay; assay type: biochemical; conditions: for IC50 / IC50 JMJD5: 2OG 2.0 μM, Fe(II) 2.0 μM, LAA 100 μM, RPS6_128–148 2.0 μM
# T1 construct: made in house; host or cells: Escherichia coli BL21(DE3)
# Method: Solutions of the small-molecules (100% DMSO) were dry dispensed across 384 well polypropylene V-bottom assay microplates (Greiner) in an approximately three-fold and 11-point dilution series (100 μM inhibitor top concentration; the final DMSO assay concentration was kept constant at 0.5%v/v) using an ECHO 550 acoustic dispenser (Labcyte). […] Each reaction was performed in technical duplicates in adjacent wells of the assay plates; additionally, assays were performed in two independent duplicates on different days using different inhibitor solutions.
# The Enzyme Mixture (25 μL per well), containing 0.3 μM His6-thioredoxin-tagged JMJD5 in buffer (50 mM MOPS, pH 7.5), was dispensed across the inhibitor-containing 384-well plates with a multidrop dispenser (ThermoFischer Scientific) at 20 °C under an ambient atmosphere. The plates were subsequently centrifuged (1000 rpm, 5 s) and incubated for 15 min at 20 °C. […] The plates were centrifuged (1000 rpm, 5 s) and, after incubating for 30 min, the enzyme reaction was stopped by the addition of 10%v/v aqueous formic acid (5 μL per well). The plates were then centrifuged (1000 rpm, 30 s) and analyzed by MS.
# Z′-Factors were calculated according to the cited literature using Microsoft Excel.[61]
# human JMJD5 [2] = target: T1, human JMJD5; assay: SPE-MS JMJD5 turnover and kinetic assay (RPS6_128–148 hydroxylation); assay type: biochemical; conditions: absence of 2OG; JMJD5 0.15 μM, 2OG derivative 400 μM, Fe(II) 20 μM, RPS6_128–148 2.0 μM
# Method: JMJD5 turnover assays for time course and kinetic experiments were performed in 96-well polypropylene assay plates (Greiner) with either […] total reaction volume using the concentrations given in the manuscript or ESI, ^† and JMJD5-catalysed substrate hydroxylation was directly monitored using SPE-MS. […] Assay samples were aspirated under vacuum for 0.6 s and loaded onto a C4 solid phase extraction (SPE) cartridge. After loading, the C4 SPE cartridge was washed with 0.1%v/v aqueous formic acid to remove non-volatile buffer salts (5.5 s, 1.5 mL min^−1). The peptide was eluted from the SPE cartridge with 0.1%v/v aqueous formic acid in 80/20v/v acetonitrile/water into the mass spectrometer (5.5 s, 1.5 mL min^−1) and the SPE cartridge re-equilibrated with 0.1%v/v aqueous formic acid (0.5 s, 1.5 mL min^−1). The mass spectrometer was operated using the MassHunter Workstation B.08.00 software (Agilent), the mass spectrometer parameters were: capillary voltage (4000 V), nozzle voltage (1000 V), fragmentor voltage (365 V), gas temperature (280 °C), gas flow (13 L min^−1), sheath gas temperature (350 °C), sheath gas flow (12 L min^−1). […] Data were exported into Microsoft Excel and used to calculate the % conversion of the hydroxylation reaction using the equation: % conversion = 100 × (integral product peptide)/(integral substrate peptide + integral product peptide).
# parameters (continues on the following two pages). Maximum velocities (vapp ) and Michaelis constants (Kapp)
# of JMJD5 were determined in independent triplicates, monitoring the JMJD5-catalyzed hydroxylation of the
# SPE-MS, as described (Experimental Section).
# 20 °C). Measurement times were normalized to the first sample injection analyzed after the addition of JMJD5 to
# shown as the mean of three independent runs (n = 3; mean ± standard deviation, SD).
# hexahydrate (20 μM, (NH4)2Fe(SO4)2·6H2O); and (b) hydroxylation rates used to determine kinetic parameters of
# (1 picture or pasted object on this page, not shown here)
# Maximum velocities (vapp ) and
# Michaelis constants (Kapp) of JMJD5 were determined in independent triplicates for (1R)-3-
# (carboxycarbonyl)cyclopentane-1-carboxylic acid (14), monitoring the JMJD5-catalyzed hydroxylation of the
# as described (Experimental Section).
# pH 7.5, 20 °C). Measurement times were normalized to the first sample injection analyzed after the addition of
# (§1) Data are shown as the mean of three independent runs (n = 3; mean ± SD).
# to determine kinetic parameters of JMJD5 for 14.
# human KDM4E [3] = target: T2, human KDM4E (Homo sapiens, UniProt B2RXH2); assay: KDM4E SPE-MS turnover and kinetic assay (H3 K9(me3) peptide demethylation); assay type: biochemical; conditions: absence of 2OG; KDM4E 0.15 μM, 2OG derivative 330 μM, Fe(II) 50 μM, ARTAQTARK(me3)STGGIA 10.0 μM
# T2 sequence (B2RXH2 1-506): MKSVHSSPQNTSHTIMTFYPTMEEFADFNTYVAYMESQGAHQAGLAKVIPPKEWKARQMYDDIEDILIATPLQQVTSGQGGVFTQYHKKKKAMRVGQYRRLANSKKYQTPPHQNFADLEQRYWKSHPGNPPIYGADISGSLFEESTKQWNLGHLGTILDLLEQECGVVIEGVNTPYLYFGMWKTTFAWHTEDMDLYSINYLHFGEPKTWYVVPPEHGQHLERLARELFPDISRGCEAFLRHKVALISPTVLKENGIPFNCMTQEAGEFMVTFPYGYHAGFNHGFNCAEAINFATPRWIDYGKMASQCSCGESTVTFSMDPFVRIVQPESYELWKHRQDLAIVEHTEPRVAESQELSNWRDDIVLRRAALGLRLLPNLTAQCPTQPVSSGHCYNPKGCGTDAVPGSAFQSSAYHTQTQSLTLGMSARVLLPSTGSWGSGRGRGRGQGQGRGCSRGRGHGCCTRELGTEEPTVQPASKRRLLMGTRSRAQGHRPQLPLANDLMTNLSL
# Method: KDM4E turnover and inhibition assays were performed as reported using recombinant human KDM4E and a histone 3 K9(me3) derivative (i.e. […](me3)STGGIA)[41] as substrate.[95]
# Supplementary Figure S3. Rates of KDM4E-catalyzed Nε-trimethyl lysine demethylations of a histone 3- […]
# Maximum velocities (vapp ) and Michaelis […]
# catalyzed Nε-trimethyl lysine demethylation of the histone 3 K9(me3)-derived peptide […]
# (me3)STGGIA2 by SPE-MS as described;3 note that mono-, di-, and tri-demethylated product […]
# buffer (50 mM MES, pH 7.0, 20 °C). Measurement times were normalized to the first sample injection analyzed […]
# as §1
# (a) Time course of the KDM4E-catalyzed Nε-trimethyl lysine demethylation reaction of the […]
# human FIH = conditions: absence of 2OG; FIH 0.15 μM, 2OG derivative 330 μM, Fe(II) 50 μM, HIF-1α788–822 5.0 μM; cited from earlier work
# human AspH = conditions: absence of 2OG; AspH 0.1 μM, 2OG derivative 330 μM, Fe(II) 50 μM, hFX-CP101–119 2.0 μM; cited from earlier work
# human KDM4E [4] = target: T2, human KDM4E; assay: KDM4E SPE-MS inhibition assay; assay type: biochemical; conditions: KDM4E 0.15 μM, peptide 10.0 μM, LAA 100 μM, FAS 10 μM, 2OG 10 μM
# Method: KDM4E turnover and inhibition assays were performed as reported using recombinant human KDM4E and a histone 3 K9(me3) derivative (i.e. […](me3)STGGIA)[41] as substrate.[95] […]
# [5] = JMJD5 0.15 μM, read-out: IC50 JMJD5
# T1 sequence (Q8N371 whole entry): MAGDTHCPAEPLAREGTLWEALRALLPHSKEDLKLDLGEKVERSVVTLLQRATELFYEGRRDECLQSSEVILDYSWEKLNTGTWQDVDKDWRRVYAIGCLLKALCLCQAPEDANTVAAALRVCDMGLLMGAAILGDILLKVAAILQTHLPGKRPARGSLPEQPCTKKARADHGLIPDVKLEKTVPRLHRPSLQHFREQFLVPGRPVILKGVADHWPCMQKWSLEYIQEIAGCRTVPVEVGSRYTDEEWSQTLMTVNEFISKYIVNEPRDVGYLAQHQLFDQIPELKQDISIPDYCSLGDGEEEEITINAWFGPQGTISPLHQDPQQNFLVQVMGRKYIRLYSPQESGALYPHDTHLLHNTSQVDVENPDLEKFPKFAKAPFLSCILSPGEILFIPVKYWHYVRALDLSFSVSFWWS
compound,measurement,setting,value
CN(C)CCCNC(=O)c1ccc(-c2cc(O)c3ncccc3c2)cc1 [C00034],IC50,human JMJD5 [1]; [5],3 ± 0.5 µM
"O=C(O)CNC(=O)c1c(O)c2ccccc2n(OCC2CC2)c1=O [C00037, reference compound]",IC50,"human JMJD5 [1]; IC50 JMJD5, JMJD5 0.15 μM",37.2 ± 6 µM
"3-(9,9-dimethyl-9H-fluoren-2-yl)methyl-2OG [2OG derivative 7]",JMJD5 (%): RPS6_128–148 hydroxylation with the compound as cosubstrate,human JMJD5 [2],< 1%
same,IC50,human JMJD5 [1]; [5],> 50 µM
same,KDM4E (%): substrate demethylation with the compound as cosubstrate,human KDM4E [3],< 1%
same,FIH (%): substrate hydroxylation with the compound as cosubstrate,human FIH,< 1%
same,AspH (%): substrate hydroxylation with the compound as cosubstrate,human AspH,< 1%
"Cc1nc(C(=O)NCC(=O)O)c(O)c2ccc(Oc3ccccc3)cc12 [roxadustat, reference compound]",IC50 JMJD5,human JMJD5 [1]; JMJD5 0.15 μM,does not inhibit JMJD5 at substantial levels
"O=C(O)CNC(=O)c1c(O)c2ccccc2n(Cc2ccccc2)c1=O [C00035, reference compound]",IC50,human JMJD5 [1]; [5],17.8 ± 5.6 µM
O=C(O)c1ccc(O)c2ncccc12 [C00029],IC50,"human JMJD5 [1]; IC50 JMJD5, JMJD5 0.15 μM",2.6 ± 0.1 µM
O=C(O)CCNc1cc(N2CCc3ccccc3CC2)nc(-c2ccccn2)n1 [C00036],IC50,human JMJD5 [1]; [5],4.4 ± 0.5 µM
"O=C(O)C(=O)N[C@H](Cc1ccccc1)C(=O)O [NOFD, N-Oxalyl-D-phenylalanine, reference compound]",IC50 JMJD5,human JMJD5 [1]; JMJD5 0.15 μM,does not inhibit JMJD5 in the concentration range tested
CC1(C)c2ccccc2-c2ccc(CC(CC(=O)O)C(=O)C(=O)O)cc21 (stereo not shown) [Entry 7],JMJD5 (%): RPS6_128–148 hydroxylation with the compound as cosubstrate,human JMJD5 [2],< 1%
same,KDM4E (%): substrate demethylation with the compound as cosubstrate,human KDM4E [3],< 1%
same,IC50,human KDM4E [4],6 to 7 µM and ~6.1 µM
same,FIH (%): substrate hydroxylation with the compound as cosubstrate,human FIH,< 1%
same,AspH (%): substrate hydroxylation with the compound as cosubstrate,human AspH,< 1%
O=c1c2ccccc2[se]n1-c1ccccc1 [C00031],IC50,human JMJD5 [1]; [5],0.69 ± 0.15 µM
"O=c1c2ccccc2[se]n1-c1ccccc1 [ebselen, reference compound]",Hill coefficient of the JMJD5 inhibition curve,human JMJD5 [1],≥ 2
same,IC50,human JMJD5 [1]; [5],~0.7 µM
"CN(C)NC(=O)CCC(=O)O [daminozide, reference compound]",IC50,"human JMJD5 [1]; IC50 JMJD5, JMJD5 0.15 μM",> 100 µM
"O=C(O)CCNc1cc(N2CCc3ccccc3CC2)nc(-c2ccccn2)n1 [GSK-J1, reference compound]",IC50,human JMJD5 [1]; [5],~4.4 µM
O=C(O)CNC(=O)C(=O)O [C00025],IC50,human JMJD5 [1]; [5],0.15 ± 0.02 µM
O=C(O)C(=O)N[C@H](Cc1ccccc1)C(=O)O [C00030],IC50,human JMJD5 [1]; [5],> 100 µM
"O=C(O)CNC(=O)C(=O)O [NOG, N-oxalylglycine, reference compound]",IC50,human JMJD5 [1]; [5],~0.2 µM
"O=c1c(-n2ccnn2)c[nH]n1-c1cc(N2CCOCC2)ncn1 [C00039, reference compound]",IC50,human JMJD5 [1]; [5],29.5 ± 1.6 µM
"CN(C)CCCNC(=O)c1ccc(-c2cc(O)c3ncccc3c2)cc1 [ML324, reference compound]",Hill coefficient of the JMJD5 inhibition curve,human JMJD5 [1],≥ 2
O=C(O)C(=O)c1cscc1C(=O)O [Entry 34],JMJD5 (%): RPS6_128–148 hydroxylation with the compound as cosubstrate,human JMJD5 [2],< 1%
same,KDM4E (%): substrate demethylation with the compound as cosubstrate,human KDM4E [3],< 1%
same,FIH (%): substrate hydroxylation with the compound as cosubstrate,human FIH,< 1%
same,AspH (%): substrate hydroxylation with the compound as cosubstrate,human AspH,< 1%
CCCC(CC(=O)C(=O)O)C(=O)O (stereo not shown) [C00006],JMJD5 (%): RPS6_128–148 hydroxylation with the compound as cosubstrate,human JMJD5 [2],∼10%
same,KDM4E (%): substrate demethylation with the compound as cosubstrate,human KDM4E [3],<1%
same,FIH (%): substrate hydroxylation with the compound as cosubstrate,human FIH,∼5%
same,AspH (%): substrate hydroxylation with the compound as cosubstrate,human AspH,<1%
CCC(CC(=O)C(=O)O)C(=O)O (stereo not shown) [C00004],JMJD5 (%): RPS6_128–148 hydroxylation with the compound as cosubstrate,human JMJD5 [2],∼10%
same,KDM4E (%): substrate demethylation with the compound as cosubstrate,human KDM4E [3],<1%
same,FIH (%): substrate hydroxylation with the compound as cosubstrate,human FIH,∼10%
same,AspH (%): substrate hydroxylation with the compound as cosubstrate,human AspH,<1%
CC1(C)C(C(=O)O)C1C(=O)C(=O)O (mixture of isomers) [Entry 21],JMJD5 (%): RPS6_128–148 hydroxylation with the compound as cosubstrate,human JMJD5 [2],< 1%
same,KDM4E (%): substrate demethylation with the compound as cosubstrate,human KDM4E [3],< 1%
same,FIH (%): substrate hydroxylation with the compound as cosubstrate,human FIH,< 1%
same,AspH (%): substrate hydroxylation with the compound as cosubstrate,human AspH,< 1%
